Structures can show the parent of a compound that is named as a salt.
Legend:
[1] = molecular target: D2 receptors from African Green monkey; assay: D2 receptor binding (displacement of 3H-YM 09151-2); conditions: COS cells with recombinant D2 receptors; 0.5 nM 3H-YM 09151-2; nonspecific binding with 1 mM spiperone
Method: (§1) Pellets of COS cells containing recombinantly produced D2 or D3 receptors from African Green monkey were used for the assays. The sample is homogenized in 100 volumes (w/vol) of 0.05M Tris HCI buffer at 4° C and pH 7.4. The sample is then centfifuged at 30,000×g and resuspended and rehomogenized. The sample is then centdfuged as described and the final tissue sample is frozen until use. The tissue is resuspended 1:20 (wt/vol) in 0.05M Tris HCl buffer containing 100 mM NaCl.
(§2) Incubations are carried out at 48° C and contain 0.4 ml of tissue sample, 0.5 nM ^3 H-YM 09151-2 and the compound of interest in a total incubation of 1.0 ml. Nonspecific binding is defined as that binding found in the presence of 1 mM spiperone; without further additions, nonspecific binding is less than 20% of total binding. The binding characteristics of representative compounds of the invention for D2 and D3 receptor subtypes are shown in Table 2 for rat striatal homogenates.

[2] = molecular target: T1, D3 receptors from African Green monkey (Chlorocebus aethiops, UniProt P52703); assay: D3 receptor binding (displacement of 3H-YM 09151-2); conditions: COS cells with recombinant D3 receptors; 0.5 nM 3H-YM 09151-2; nonspecific binding with 1 mM spiperone
T1 construct: expressed in transfected cells; host or cells: COS cells
Method: as §1, §2

T1 sequence (P52703 whole entry): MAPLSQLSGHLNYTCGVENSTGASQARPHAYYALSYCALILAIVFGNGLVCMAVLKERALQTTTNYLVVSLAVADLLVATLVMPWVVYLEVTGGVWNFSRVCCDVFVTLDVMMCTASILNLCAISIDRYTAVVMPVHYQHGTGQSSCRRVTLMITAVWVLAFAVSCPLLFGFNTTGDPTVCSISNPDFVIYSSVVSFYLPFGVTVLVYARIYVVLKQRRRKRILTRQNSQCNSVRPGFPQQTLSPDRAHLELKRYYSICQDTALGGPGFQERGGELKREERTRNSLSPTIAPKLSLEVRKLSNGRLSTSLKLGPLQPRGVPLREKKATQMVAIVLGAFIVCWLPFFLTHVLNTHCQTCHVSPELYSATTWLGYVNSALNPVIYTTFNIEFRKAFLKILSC

SMILES | Ki [1] | Ki [2]
O=C(NCCCCN1CCN(c2cccc3ccccc23)CC1)c1ccc2c(c1)-c1ccccc1-2 [Compound 3, 1-(1-Napthyl)-4-{4-[N-(1-biphenylene-2-carboxamido)]butyl}piperazine dihydrochloride] | 138 nM | 3 nM
O=C(NCCCCN1CCN(c2nccc3ccccc23)CC1)c1ccc2c(c1)-c1ccccc1-2 [Compound 4, 1-(1-Isoquinolyl)-4-{4-[N-(1-biphenylene-2-carboxamido)]butyl}piperazine d ihydrochloride] | > 100 nM | 15 nM
COc1ccccc1N1CCN(CCCCNC(=O)c2ccc3c(c2)-c2ccccc2-3)CC1 [Compound 1, 1-(2-Methoxyphenyl)-4-{4-[N-(1-biphenylene-2-carboxamido)]butyl}piperazine] | 323 nM | 5 nM
